# Measurements as given in paper PMC6152180, “Design, Synthesis and Evaluation of Hesperetin Derivatives as Potential Multifunctional Anti-Alzheimer Agents” (Molecules : A Journal of Synthetic Chemistry and Natural …, 2017).
# Where two headings read alike, the source gives them in different places.
# Assays:
# [1] = target: T1, BuChE (Equus caballus, UniProt P81908); assay: biochemical
# T1 construct: purchased Aladdin B128570-2KU; host or cells: equine serum
# Procedure: (§1) Acetylcholinesterase (AChE, E.C. 3.1.1.7, obtained from electric eel) was purchased from Sigma-Aldrich (St. Louis, MO, USA, product code: C3389-2KU). Butyrylcholinesterase (BuChE, E.C. 3.1.1.8, obtained from equine serum) was purchased from Aladdin (Shanghai, China, product code: B128570-2KU). […] The compounds were dissolved in a minimum volume of DMSO (1%) and then diluted in 0.1 M KH2PO4/K2HPO4 buffer (pH 8.0) to provide a final concentration range.
# (§2) Enzyme solutions were prepared to give 2.0 units/ mL in 2 mL aliquots. The assay medium contained phosphate buffer, pH 8.0 (1 mL), 50 μL of 0.01 M DTNB, 10 μL of enzyme, and 50 μL of 0.01 M substrate (ATC). The substrate was added to the assay medium containing enzyme, buffer, and DTNB with inhibitor after 15 min of incubation time. […] In vitro BuChE assay used the similar method described above [31]. Each concentration was assayed in triplicate.
# [2] = in vitro; conditions: human
# Procedure: Thus, we used the methylthiazolyl tetrazolium (MTT) method [30] to perform a neurocyte (SH-SY5Y) toxicity test in vitro.
# The SH-SY5Y cell line was seeded on 96-well plates at a density of 10^4 cells/well. […] Subsequently, 10 μL of 5 mg/mL MTT solution was added to each well and further incubated for 4 h at 37 °C. The solution was carefully removed, and each well was treated with DMSO (200 μL for each well). The optical density of the wells was then read on the microplate reader at 570 nm. All the tested compounds were performed in triplicate.
# [3] = Oxygen radical absorbance capacity-fluorescein (ORAC-FL) assay; conditions: Trolox equivalents, Trolox = 1
# Procedure: Vitamin E analogue Trolox was used as the standard, and the results were expressed as Trolox equivalents.
# The anti-oxidation activity was tested by using the oxygen radical absorbance capacity-fluorescein (ORAC-FL) assay [25, 32]. All the ORAC-assays measure antioxidant scavenging activity against peroxyl radical induced by 2,2′-azobis (2-amidinopropane) dihydrochloride (AAPH) at 37 °C.
# The reaction was conducted with 75 mM phosphate buffer (pH 7.4) and the final reaction mixture was 200 μL. Fluorescein (120 μL, 300 nM final concentration) and antioxidant (20 μL) were placed in the wells of a black 96-well plate, and the mixture was incubated for 15 min at 37 °C. Then AAPH solution (60 μL, 12 mM final concentration) was added rapidly. […] 6-hydroxy-2,5,7,8-tetramethylchroman-2-carboxylic acid (Trolox) was used as a standard (1–5 μM, final concentration). A blank (FL + AAPH) using phosphate buffer instead of antioxidant and Trolox calibration were carried out in each assay. The samples were measured at different concentrations (1–5 μM), and at least three independent assays were performed for each sample. Fluorescence measurements were normalized based on the curve of the blank (without antioxidant). Antioxidant curves (fluorescence versus time) were normalized to the curve of the blank in the same assay, and then the area under the fluorescence decay curve (AUC) was calculated. The net AUC of a sample was obtained by subtracting the AUC from the blank. ORAC-FL values were expressed as Trolox equivalents by using the standard curve calculated for each sample, where the ORAC-FL value of Trolox was taken as one, indicating the antioxidant potency of the test compounds.
# [4] = target: T2, AChE (Electrophorus electricus, UniProt O42275); assay: biochemical; conditions: for Selective Index: Selectivity Index = IC50 (BuChE)/IC50 (AChE)
# T2 construct: purchased Sigma-Aldrich C3389-2KU
# T2 sequence (O42275 24-633): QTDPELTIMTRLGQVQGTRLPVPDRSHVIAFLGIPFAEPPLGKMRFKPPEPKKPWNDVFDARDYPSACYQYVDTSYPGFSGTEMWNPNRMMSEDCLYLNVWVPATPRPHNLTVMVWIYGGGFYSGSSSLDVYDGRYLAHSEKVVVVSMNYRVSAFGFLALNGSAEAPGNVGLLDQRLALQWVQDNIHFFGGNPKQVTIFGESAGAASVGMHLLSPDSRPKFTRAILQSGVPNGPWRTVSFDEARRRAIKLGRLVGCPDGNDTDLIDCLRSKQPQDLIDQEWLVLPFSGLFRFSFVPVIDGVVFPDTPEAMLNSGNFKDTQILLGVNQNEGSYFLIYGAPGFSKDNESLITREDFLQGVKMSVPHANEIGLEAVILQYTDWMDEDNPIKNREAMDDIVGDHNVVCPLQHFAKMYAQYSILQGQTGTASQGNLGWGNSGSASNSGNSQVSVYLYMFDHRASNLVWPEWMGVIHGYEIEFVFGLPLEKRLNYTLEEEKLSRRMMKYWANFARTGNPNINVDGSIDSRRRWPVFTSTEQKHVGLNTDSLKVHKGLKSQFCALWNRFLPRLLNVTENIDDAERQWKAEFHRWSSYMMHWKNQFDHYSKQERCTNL
# Procedure: as §1, §2
# [5] = target: Aβ (1–42) (Homo sapiens, UniProt P05067); assay: Inhibition of self-mediated Aβ (1–42) aggregation (thioflavin T fluorescence assay); conditions: read-out: Aβ (1–42) aggregation inhibition rate
# Chain of Aβ (1–42) (P05067 672-713): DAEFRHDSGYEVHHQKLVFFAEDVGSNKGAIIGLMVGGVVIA
# Procedure: A thioflavin T based fluorometric assay was performed to investigate the self-mediated Aβ (1–42) aggregation [33]. Aβ (1–42) peptide (Sigma-Aldrich) was dissolved in phosphate buffer (0.01 M, pH 7.40) to obtain a 20 μM solution. Compounds were firstly dissolved in DMSO to obtain a 10 mM solution. Inhibitors and the final concentration of Aβ (1–42) were 20 μM. After incubated in 37 °C for 48 h, thioflavin-T (5 μM in 50 mM glycine-NaOH buffer, pH 8.00) was added. […] Each inhibitor was run in triplicate. The fluorescence intensities were recorded, and the percent inhibition on aggregation was calculated by the following expression: (1 − IFi/IFc) × 100% in which IFi and IFc were the fluorescence intensities obtained for absorbance in the presence and absence of inhibitors, respectively, after subtracting the fluorescence of respective blanks.
# [6] = BuChE from equine serum, means ± SEM of three experiments, read-out: BuChE Inhibition, (IC50)
# [7] = AChE from electric eel, means ± SEM of three experiments, read-out: AchE Inhibition, (IC50)
# T1 sequence (P81908 whole entry): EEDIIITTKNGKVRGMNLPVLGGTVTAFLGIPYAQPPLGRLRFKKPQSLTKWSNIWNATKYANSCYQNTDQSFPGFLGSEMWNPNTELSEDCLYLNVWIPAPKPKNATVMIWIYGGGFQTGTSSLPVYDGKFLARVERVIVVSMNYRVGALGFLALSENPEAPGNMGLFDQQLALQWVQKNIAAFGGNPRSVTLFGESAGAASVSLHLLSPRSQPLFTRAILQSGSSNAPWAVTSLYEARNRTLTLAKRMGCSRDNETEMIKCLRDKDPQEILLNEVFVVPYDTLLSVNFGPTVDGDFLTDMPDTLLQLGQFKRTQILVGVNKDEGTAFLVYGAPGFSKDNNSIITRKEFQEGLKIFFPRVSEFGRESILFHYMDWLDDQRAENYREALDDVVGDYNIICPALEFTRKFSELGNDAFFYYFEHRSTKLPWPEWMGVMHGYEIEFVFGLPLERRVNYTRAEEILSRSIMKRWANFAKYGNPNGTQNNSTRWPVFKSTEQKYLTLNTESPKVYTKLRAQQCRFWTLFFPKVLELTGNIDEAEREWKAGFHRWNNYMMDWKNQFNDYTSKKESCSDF
SMILES,"IC50 [1, 6] [nM]","viability at 48 h, 1 µM [2] [%]","viability at 48 h, 10 µM [2] [%]","viability at 48 h, 50 µM [2] [%]","viability at 48 h, 100 µM [2] [%]",ORAC [3],"IC50 [4, 7] [nM]",Selective Index [4],IC50 [1] [nM],IC50 [4] [nM],inhibition at 20 µM [5] [%]
"COc1ccc(C2CC(=O)c3c(O)cc(OCC(=O)NCCc4ccccc4F)cc3O2)cc1O (centres unmarked) [Compound 4q, N-[2-(2-Fluorophenyl)ethyl]-2-[5-hydroxy-2-(3-hydroxy-4-methoxyphenyl)-4-oxochroman-7-yloxy]-acetamide]",2240 ± 77,99 ± 5.28,92 ± 6.41,85.6 ± 3.95,66.5 ± 3.81,2.5 μM of Trolox equivalent/μMof tested compound,20.2 ± 1.88,111,–,–,–
"COc1ccc(C2CC(=O)c3c(O)cc(OCC(=O)NCCc4ccccc4)cc3O2)cc1O (centres unmarked) [Compound 4k, 2-[5-Hydroxy-2-(3-hydroxy-4-methoxyphenyl)-4-oxochroman-7-yloxy]-N-phenethyl-acetamide]",3010 ± 74,98.9 ± 6.3,96.5 ± 2.98,81 ± 3.22,68.5 ± 4.92,2.7 μM of Trolox equivalent/μMof tested compound,11.9 ± 1.12,254,–,–,–
"COc1ccc([C@@H]2CC(=O)c3c(O)cc(O)cc3O2)cc1O [Hesperetin, hesperetin]",–,99 ± 5.87,93 ± 4.33,85.2 ± 3.43,67.3 ± 5.21,–,–,3,2900 ± 67,1020 ± 37,–
"COc1ccc(CNC(=O)COc2cc(O)c3c(c2)OC(c2ccc(OC)c(O)c2)CC3=O)cc1 (centres unmarked) [Compound 4e, 2-[5-Hydroxy-2-(3-hydroxy-4-methoxyphenyl)-4-oxochroman-7-yloxy]-N-(4-methoxy-benzyl)acetamide]",3210 ± 92,105 ± 3.87,98.3 ± 5.27,87.1 ± 6.37,66.5 ± 4.95,2.8 μM of Trolox equivalent/μMof tested compound,17.9,179,–,–,–
"COc1cc(/C=C/C(=O)CC(=O)/C=C/c2ccc(O)c(OC)c2)ccc1O [Curcumin, curcumin, reference compound]",–,95.3 ± 5.21,90.9 ± 4.31,82.1 ± 3.07,71.8 ± 4.21,–,–,–,–,–,–
"COc1ccc(C2CC(=O)c3c(O)cc(OCC(=O)NCc4ccccc4Cl)cc3O2)cc1O (centres unmarked) [Compound 4g, N-(2-Chlorobenzyl)-2-[5-hydroxy-2-(3-hydroxy-4-methoxyphenyl)-4-oxochroman-7-yloxy]acetamide]",1630 ± 78,97.8 ± 6.83,95.7 ± 5.67,79.3 ± 4.33,70.8 ± 5.32,–,14 ± 0.95,116,–,–,–
"COc1ccc(C2CC(=O)c3c(O)cc(OCC(=O)NCCc4ccc(F)cc4)cc3O2)cc1O (centres unmarked) [Compound 4o, N-[2-(4-Fluorophenyl)ethyl]-2-[5-hydroxy-2-(3-hydroxy-4-methoxyphenyl)-4-oxochroman-7-yloxy]-acetamide]",2260 ± 81,101 ± 6.31,97.2 ± 5.09,81.7 ± 3.52,59.7 ± 6.14,–,13.5 ± 1.44,167,–,–,–
"COc1ccc(C2CC(=O)c3c(O)cc(OCC(=O)NCCc4ccc(Br)cc4)cc3O2)cc1O (centres unmarked) [Compound 4n, N-[2-(4-Bromophenyl)ethyl]-2-[5-hydroxy-2-(3-hydroxy-4-methoxyphenyl)-4-oxo-chroman-7-yloxy]acetamide]",1990 ± 51,99.8 ± 3.89,96.5 ± 4.24,78.8 ± 5.21,55.6 ± 5.34,2.4 μM of Trolox equivalent/μMof tested compound,17.2 ± 0.96,115,–,–,–
"COc1ccc(C2CC(=O)c3c(O)cc(OCC(=O)NCc4ccccc4OC)cc3O2)cc1O (centres unmarked) [Compound 4i, 2-[5-Hydroxy-2-(3-hydroxy-4-methoxyphenyl)-4-oxochroman-7-yloxy]-N-(2-methoxy-benzyl)acetamide]",1990 ± 134,97.8 ± 6.32,96.7 ± 5.21,75 ± 4.12,55 ± 5.69,2.7 μM of Trolox equivalent/μMof tested compound,19.2 ± 0.66,103,–,–,–
"COc1cccc(CNC(=O)COc2cc(O)c3c(c2)OC(c2ccc(OC)c(O)c2)CC3=O)c1 (centres unmarked) [Compound 4j, 2-[5-Hydroxy-2-(3-hydroxy-4-methoxyphenyl)-4-oxochroman-7-yloxy]-N-(3-methoxy-benzyl)acetamide]",2460 ± 83,103 ± 6.47,98.2 ± 7.01,84.2 ± 3.2,70.8 ± 5.36,3.1 μM of Trolox equivalent/μMof tested compound,22.3 ± 1.54,110,–,–,–
"COc1ccc(C2CC(=O)c3c(O)cc(OCC(=O)NCc4ccccc4F)cc3O2)cc1O (centres unmarked) [Compound 4h, N-(2-Fluorobenzyl)-2-[5-hydroxy-2-(3-hydroxy-4-methoxyphenyl)-4-oxochroman-7-yloxy]-acetamide]",2800 ± 39,100 ± 6.52,98.8 ± 5.38,75.8 ± 3.83,60.6 ± 4.27,2.5 μM of Trolox equivalent/μMof tested compound,15.2 ± 2.03,184,–,–,–
"COc1ccc(CCNC(=O)COc2cc(O)c3c(c2)OC(c2ccc(OC)c(O)c2)CC3=O)cc1 (centres unmarked) [Compound 4l, 2-[5-Hydroxy-2-(3-hydroxy-4-methoxyphenyl)-4-oxochroman-7-yloxy]-N-[2-(4-methoxy-phenyl)ethyl]acetamide]",2790 ± 53,98.9 ± 4.07,94.5 ± 5.32,78.5 ± 3.21,63.2 ± 5.04,2.9 μM of Trolox equivalent/μMof tested compound,19.5 ± 0.77,143,–,–,–
"COc1ccc(C2CC(=O)c3c(O)cc(OCC(=O)NCCc4ccc(Cl)cc4)cc3O2)cc1O (centres unmarked) [Compound 4m, N-[2-(4-Chlorophenyl)ethyl]-2-[5-hydroxy-2-(3-hydroxy-4-methoxyphenyl)-4-oxo-chroman-7-yloxy]acetamide]",3350 ± 66,102 ± 6.65,97.3 ± 5.21,81.5 ± 4.01,64.5 ± 4.32,2.6 μM of Trolox equivalent/μMof tested compound,15.7 ± 0.85,214,–,–,–
"COc1ccc(C2CC(=O)c3c(O)cc(OCC(=O)NCc4ccc(F)cc4)cc3O2)cc1O (centres unmarked) [Compound 4c, N-(4-Fluorobenzyl)-2-[5-hydroxy-2-(3-hydroxy-4-methoxyphenyl)-4-oxochroman-7-yloxy]-acetamide]",2080 ± 76,98.5 ± 4.98,97.5 ± 3.76,83.8 ± 2.32,58.8 ± 3.97,2.9 μM of Trolox equivalent/μMof tested compound,12.4 ± 0.81,167,–,–,–
"COc1ccc(C2CC(=O)c3c(O)cc(OCC(=O)NCc4ccc(Cl)cc4)cc3O2)cc1O (centres unmarked) [Compound 4b, N-(4-Chlorobenzyl)-2-[5-hydroxy-2-(3-hydroxy-4-methoxyphenyl)-4-oxochroman-7-yloxy]-acetamide]",3500 ± 66,103 ± 4.56,95.9 ± 3.98,83.7 ± 4.12,65.4 ± 5.33,2.7 μM of Trolox equivalent/μMof tested compound,13.6 ± 0.78,258,–,–,–
"Nc1c2c(nc3ccccc13)CCCC2 [Tacrine, tacrine, reference compound]",–,–,–,–,–,<0.1 μM of Trolox equivalent/μMof tested compound,–,–,–,–,–
"COc1ccc(C2CC(=O)c3c(O)cc(OCC(=O)NCc4ccc(Br)cc4)cc3O2)cc1O (centres unmarked) [Compound 4d, N-(4-Bromobenzyl)-2-[5-hydroxy-2-(3-hydroxy-4-methoxyphenyl)-4-oxochroman-7-yloxy]-acetamide]",2130 ± 64,99.9 ± 5.76,99.5 ± 6.23,86.2 ± 5.14,70 ± 4.78,2.6 μM of Trolox equivalent/μMof tested compound,15.7 ± 0.95,136,–,–,–
"COc1ccc(C2CC(=O)c3c(O)cc(OCC(=O)NCCc4ccccc4Cl)cc3O2)cc1O (centres unmarked) [Compound 4p, N-[2-(2-Chlorophenyl)ethyl]-2-[5-hydroxy-2-(3-hydroxy-4-methoxyphenyl)-4-oxo-chroman-7-yloxy]acetamide]",3470 ± 67,99.3 ± 4.34,94.4 ± 3.9,83.1 ± 4.27,64.5 ± 4.82,2.7 μM of Trolox equivalent/μMof tested compound,17.2 ± 0.45,201,–,–,–
"COc1ccc(C2CC(=O)c3c(O)cc(OCC(=O)NCc4ccccc4)cc3O2)cc1O (centres unmarked) [Compound 4a, N-Benzyl-2-[5-hydroxy-2-(3-hydroxy-4-methoxyphenyl)-4-oxochroman-7-yloxy]-acetamide]",3400 ± 56,98.2 ± 8.02,91.6 ± 5.67,81.4 ± 5.23,63.2 ± 4.23,–,25.5 ± 1.32,133,–,–,73.2
"COc1ccc(C2CC(=O)c3c(O)cc(OCC(=O)NCCc4cccc(Cl)c4)cc3O2)cc1O (centres unmarked) [Compound 4r, N-[2-(3-Chlorophenyl)ethyl]-2-[5-hydroxy-2-(3-hydroxy-4-methoxyphenyl)-4-oxo-chroman-7-yloxy]acetamide]",3030 ± 84,98.9 ± 5.2,95.8 ± 6.29,83.8 ± 4.24,62.2 ± 4.18,2.8 μM of Trolox equivalent/μMof tested compound,16.1 ± 0.79,188,–,–,–
